Measurements taken from ChEMBL document CHEMBL1201862, “PubChem BioAssay data set” (2004).
The source made the active and inactive calls.

Experiments:
[1] = target: T1, Tyrosine-protein phosphatase non-receptor type 11 (Homo sapiens, UniProt Q06124); test: PTPN11 enzyme inhibitors – biochemical, selectivity assay for STEP inhibitor project, dose response (AID 602367); format: functional; conditions: read-out: IC50_Mean
T1 sequence (Q06124 whole entry): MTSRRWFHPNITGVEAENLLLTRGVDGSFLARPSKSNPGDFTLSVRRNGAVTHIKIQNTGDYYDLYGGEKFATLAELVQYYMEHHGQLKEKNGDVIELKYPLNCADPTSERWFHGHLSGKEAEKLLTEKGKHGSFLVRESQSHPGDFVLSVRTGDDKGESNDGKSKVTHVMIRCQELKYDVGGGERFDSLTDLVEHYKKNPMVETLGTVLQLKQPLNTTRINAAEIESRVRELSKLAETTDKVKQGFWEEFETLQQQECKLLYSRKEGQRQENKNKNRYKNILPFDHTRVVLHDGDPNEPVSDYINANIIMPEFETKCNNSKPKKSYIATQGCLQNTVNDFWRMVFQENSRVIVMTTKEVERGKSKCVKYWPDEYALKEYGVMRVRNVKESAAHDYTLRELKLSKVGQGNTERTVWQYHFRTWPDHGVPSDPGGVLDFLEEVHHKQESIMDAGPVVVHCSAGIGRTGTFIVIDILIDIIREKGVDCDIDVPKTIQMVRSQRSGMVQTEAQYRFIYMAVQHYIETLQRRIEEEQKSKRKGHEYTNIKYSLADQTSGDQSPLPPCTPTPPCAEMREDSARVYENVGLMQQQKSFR

[2] = target: Tyrosine-protein phosphatase non-receptor type 22 (Homo sapiens, UniProt Q9Y2R2); test: lymphoid phosphatase LYP inhibitors – biochemical, selectivity assay for STEP inhibitor project, dose response (AID 624241); format: functional
[3] = target: Dual specificity protein phosphatase 3 (Homo sapiens, UniProt P51452); test: VHR phosphatase inhibition, dose response, selectivity assay for STEP inhibitor project, biochemical (AID 602374); format: functional; conditions: read-out: IC50_Mean
[4] = target: T2, Tyrosine-protein phosphatase non-receptor type 5 (Homo sapiens, UniProt P54829); test: PTPN5 enzyme inhibition – biochemical, fluorescence intensity, uHTS hits, confirmation (AID 602372); format: functional; conditions: read-out: IC50_Mean
T2 sequence (P54829 whole entry): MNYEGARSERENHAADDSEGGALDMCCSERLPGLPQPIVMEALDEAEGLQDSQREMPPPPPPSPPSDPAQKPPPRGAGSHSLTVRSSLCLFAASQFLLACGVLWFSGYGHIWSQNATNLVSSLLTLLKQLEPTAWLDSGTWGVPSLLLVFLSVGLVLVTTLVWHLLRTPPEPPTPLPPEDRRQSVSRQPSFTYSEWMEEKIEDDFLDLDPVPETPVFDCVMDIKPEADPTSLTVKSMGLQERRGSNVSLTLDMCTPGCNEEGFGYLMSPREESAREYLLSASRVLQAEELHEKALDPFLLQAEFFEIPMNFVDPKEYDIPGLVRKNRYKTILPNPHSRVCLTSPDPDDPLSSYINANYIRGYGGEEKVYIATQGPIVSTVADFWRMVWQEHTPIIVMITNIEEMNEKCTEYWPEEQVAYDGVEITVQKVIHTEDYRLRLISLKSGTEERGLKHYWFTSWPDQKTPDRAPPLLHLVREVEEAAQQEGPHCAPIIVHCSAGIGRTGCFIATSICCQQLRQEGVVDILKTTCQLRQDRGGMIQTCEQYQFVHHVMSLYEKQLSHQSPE

[5] = target: T3, DNA repair protein RAD52 homolog (Homo sapiens, UniProt P43351); format: functional, biochemical
T3 sequence (P43351 whole entry): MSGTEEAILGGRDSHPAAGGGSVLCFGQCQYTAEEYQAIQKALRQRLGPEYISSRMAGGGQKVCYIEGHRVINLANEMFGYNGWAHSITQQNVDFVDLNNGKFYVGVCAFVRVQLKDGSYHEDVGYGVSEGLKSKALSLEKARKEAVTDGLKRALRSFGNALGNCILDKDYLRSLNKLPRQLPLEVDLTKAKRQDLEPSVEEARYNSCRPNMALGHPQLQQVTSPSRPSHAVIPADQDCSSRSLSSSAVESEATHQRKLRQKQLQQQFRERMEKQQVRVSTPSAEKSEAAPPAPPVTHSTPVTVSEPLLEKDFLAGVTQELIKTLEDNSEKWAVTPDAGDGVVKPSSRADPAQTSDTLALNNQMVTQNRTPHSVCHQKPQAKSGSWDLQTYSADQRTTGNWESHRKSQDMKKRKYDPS

[6] = target: DNA repair and recombination protein RAD54-like (Homo sapiens, UniProt Q92698); test: RAD54 Holliday junction migration blockers – biochemical, fluorescence, cherry-picked samples, dose series, confirmation (AID 651657); format: functional
[7] = target: T4, Sentrin-specific protease 8 (Homo sapiens, UniProt Q96LD8); format: functional
T4 sequence (Q96LD8 whole entry): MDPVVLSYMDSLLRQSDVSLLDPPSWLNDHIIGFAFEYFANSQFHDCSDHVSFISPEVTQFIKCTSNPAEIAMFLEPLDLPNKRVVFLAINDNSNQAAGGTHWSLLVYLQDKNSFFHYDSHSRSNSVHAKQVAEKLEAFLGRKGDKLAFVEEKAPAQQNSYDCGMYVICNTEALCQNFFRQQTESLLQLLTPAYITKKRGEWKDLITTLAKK

[8] = target: T5, Caspase-3 (Homo sapiens, UniProt P42574); test: Dose-response confirmation of uHTS inhibitor hits of Sentrin-Specific Protease 8 in a Caspase-3 Fluorescence assay.; format: functional
T5 sequence (P42574 whole entry): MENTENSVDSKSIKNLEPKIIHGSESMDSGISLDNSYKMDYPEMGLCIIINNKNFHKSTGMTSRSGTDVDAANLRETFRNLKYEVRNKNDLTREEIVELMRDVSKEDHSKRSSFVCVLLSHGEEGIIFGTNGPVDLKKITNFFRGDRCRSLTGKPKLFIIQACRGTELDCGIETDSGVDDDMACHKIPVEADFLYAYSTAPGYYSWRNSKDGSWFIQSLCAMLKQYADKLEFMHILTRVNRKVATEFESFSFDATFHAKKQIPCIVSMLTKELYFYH

[9] = target: T4, Sentrin-specific protease 8; format: functional; remark: listed apart in the source
[10] = target: Prothrombin (Bos taurus, UniProt P00735); test: thrombin protease inhibitors – biochemical, fluorescence polarization, uHTS hits, dose response (AID 602369); format: functional
[11] = target: 26S proteasome non-ATPase regulatory subunit 14 (Homo sapiens, UniProt O00487); test: inhibition of proteasome subunit RPN11 – biochemical, fluorescence polarization, uHTS hits, confirmation (AID 602368); format: functional
[12] = target: 72 kDa type IV collagenase (Homo sapiens, UniProt P08253); test: Dose Response validation of uHTS RPN11 inhibitor hits using a MMP-2 Fluorescence assay.; format: functional
[13] = target: T6, Corticotropin-releasing factor receptor 2/Corticotropin-releasing factor-binding protein (Homo sapiens, UniProt P24387+Q13324); test: activators of CRF receptor 2 with binding protein – uHTS hits, confirmation (AID 602473); format: functional; conditions: read-out: EC50_Mean
T6 sequence (Q13324 whole entry): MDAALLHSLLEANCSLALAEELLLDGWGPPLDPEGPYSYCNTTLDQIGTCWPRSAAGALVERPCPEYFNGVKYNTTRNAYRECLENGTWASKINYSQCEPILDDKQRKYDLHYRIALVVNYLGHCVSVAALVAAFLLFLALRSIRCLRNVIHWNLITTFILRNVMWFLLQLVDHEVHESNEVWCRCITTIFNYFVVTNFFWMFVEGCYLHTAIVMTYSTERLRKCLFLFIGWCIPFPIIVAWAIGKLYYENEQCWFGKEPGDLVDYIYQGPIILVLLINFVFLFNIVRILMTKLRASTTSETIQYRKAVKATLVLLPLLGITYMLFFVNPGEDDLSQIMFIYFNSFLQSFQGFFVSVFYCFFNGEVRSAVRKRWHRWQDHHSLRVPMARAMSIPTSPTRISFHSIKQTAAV
T6 sequence (P24387 whole entry): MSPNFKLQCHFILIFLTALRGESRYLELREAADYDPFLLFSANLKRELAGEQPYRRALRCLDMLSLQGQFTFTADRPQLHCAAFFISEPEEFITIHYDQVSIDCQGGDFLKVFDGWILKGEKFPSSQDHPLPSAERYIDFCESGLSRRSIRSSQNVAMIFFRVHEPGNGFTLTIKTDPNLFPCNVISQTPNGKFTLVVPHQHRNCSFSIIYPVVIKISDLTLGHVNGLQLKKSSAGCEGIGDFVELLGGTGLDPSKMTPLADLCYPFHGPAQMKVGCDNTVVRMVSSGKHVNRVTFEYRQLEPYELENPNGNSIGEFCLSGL

[14] = tested on: Vero; test: cells; format: functional; conditions: Chlorocebus sabaeus

Chain of 26S proteasome non-ATPase regulatory subunit 14 (O00487 whole entry): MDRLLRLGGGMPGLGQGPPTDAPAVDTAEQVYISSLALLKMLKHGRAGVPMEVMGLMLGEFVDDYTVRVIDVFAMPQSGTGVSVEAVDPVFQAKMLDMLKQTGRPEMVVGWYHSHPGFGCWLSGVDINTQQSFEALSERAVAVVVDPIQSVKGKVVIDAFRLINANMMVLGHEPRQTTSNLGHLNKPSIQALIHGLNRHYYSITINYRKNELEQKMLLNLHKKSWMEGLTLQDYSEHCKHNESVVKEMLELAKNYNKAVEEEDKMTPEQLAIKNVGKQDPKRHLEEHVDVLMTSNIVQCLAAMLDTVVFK
Chain of 72 kDa type IV collagenase (P08253 whole entry): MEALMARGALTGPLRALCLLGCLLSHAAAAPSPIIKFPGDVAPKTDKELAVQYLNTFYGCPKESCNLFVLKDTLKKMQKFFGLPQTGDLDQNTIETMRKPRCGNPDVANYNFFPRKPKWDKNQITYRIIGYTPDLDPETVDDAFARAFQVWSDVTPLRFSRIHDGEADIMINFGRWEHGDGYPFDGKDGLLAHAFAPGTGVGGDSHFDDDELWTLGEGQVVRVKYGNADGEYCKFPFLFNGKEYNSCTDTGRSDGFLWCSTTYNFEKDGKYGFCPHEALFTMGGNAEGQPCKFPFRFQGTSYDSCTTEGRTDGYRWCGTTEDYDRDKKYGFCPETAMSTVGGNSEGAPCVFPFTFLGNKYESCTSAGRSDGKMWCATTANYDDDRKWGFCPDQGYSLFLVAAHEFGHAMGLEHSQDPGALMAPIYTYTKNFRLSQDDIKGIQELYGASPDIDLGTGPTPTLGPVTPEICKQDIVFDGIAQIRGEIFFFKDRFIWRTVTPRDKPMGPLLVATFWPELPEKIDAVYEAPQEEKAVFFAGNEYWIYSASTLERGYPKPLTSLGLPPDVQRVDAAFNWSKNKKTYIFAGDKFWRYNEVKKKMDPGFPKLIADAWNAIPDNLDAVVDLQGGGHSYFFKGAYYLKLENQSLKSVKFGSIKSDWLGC
Chain of DNA repair and recombination protein RAD54-like (Q92698 whole entry): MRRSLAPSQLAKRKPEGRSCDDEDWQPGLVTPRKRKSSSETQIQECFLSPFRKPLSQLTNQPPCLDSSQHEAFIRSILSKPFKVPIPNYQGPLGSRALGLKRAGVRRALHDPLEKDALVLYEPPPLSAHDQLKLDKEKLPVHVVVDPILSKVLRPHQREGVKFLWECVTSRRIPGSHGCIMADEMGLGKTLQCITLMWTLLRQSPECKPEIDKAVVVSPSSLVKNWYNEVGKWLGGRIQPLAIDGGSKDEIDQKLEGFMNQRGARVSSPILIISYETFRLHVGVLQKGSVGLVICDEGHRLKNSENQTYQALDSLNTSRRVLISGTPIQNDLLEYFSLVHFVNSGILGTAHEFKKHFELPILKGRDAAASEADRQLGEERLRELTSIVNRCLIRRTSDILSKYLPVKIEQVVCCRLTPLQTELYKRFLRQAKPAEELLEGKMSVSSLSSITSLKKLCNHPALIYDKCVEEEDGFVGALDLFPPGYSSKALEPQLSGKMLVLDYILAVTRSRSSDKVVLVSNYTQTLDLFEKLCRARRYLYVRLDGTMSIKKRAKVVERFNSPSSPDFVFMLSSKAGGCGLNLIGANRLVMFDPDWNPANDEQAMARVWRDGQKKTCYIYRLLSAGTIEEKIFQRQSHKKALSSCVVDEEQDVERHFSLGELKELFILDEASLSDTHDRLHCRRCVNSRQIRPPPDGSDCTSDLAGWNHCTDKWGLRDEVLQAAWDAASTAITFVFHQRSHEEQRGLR
Chain of Tyrosine-protein phosphatase non-receptor type 22 (Q9Y2R2 whole entry): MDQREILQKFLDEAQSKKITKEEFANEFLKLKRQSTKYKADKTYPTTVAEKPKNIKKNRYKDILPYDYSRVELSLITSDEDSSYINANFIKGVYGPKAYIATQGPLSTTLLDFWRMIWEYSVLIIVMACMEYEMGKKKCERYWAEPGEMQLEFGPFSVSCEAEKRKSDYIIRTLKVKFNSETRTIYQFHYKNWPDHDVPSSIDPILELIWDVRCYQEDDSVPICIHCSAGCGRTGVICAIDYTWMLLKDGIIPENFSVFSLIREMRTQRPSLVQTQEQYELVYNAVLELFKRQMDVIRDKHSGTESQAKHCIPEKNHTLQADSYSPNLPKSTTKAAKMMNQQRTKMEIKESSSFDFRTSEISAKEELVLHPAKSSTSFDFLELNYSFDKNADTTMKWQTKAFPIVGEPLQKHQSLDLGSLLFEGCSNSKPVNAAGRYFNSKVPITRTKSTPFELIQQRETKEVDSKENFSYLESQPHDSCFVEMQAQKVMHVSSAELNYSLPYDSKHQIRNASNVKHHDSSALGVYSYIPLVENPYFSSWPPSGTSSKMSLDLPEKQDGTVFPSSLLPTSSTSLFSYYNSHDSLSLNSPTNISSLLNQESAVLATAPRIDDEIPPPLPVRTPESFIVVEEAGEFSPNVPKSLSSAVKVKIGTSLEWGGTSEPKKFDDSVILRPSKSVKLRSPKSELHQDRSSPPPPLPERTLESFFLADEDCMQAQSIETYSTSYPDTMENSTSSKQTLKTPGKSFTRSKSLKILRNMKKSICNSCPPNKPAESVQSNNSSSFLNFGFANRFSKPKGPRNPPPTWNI
Chain of Dual specificity protein phosphatase 3 (P51452 whole entry): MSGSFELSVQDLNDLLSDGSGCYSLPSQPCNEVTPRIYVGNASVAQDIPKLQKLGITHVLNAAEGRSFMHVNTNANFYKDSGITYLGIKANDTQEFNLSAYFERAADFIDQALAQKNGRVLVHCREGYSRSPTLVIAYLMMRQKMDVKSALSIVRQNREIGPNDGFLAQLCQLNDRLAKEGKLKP

With `COc1ccccc1NS(=O)(=O)c1cc(NC(=O)c2sccc2C)ccc1N1CCCC1` the IC50 [1] was 0.665 µM (active), the IC50 [2] was 25.9 µM (inactive) and the IC50 [3] was 0.163 µM (active). The IC50 [4] was 2.73 µM (active).

With `N=c1n(CCN2CCCCC2)c2ccccc2n1CC(=O)c1cccc([N+](=O)[O-])c1` the AC50 [5] was 9.9 µM (active) and the AC50 [6] was 23.7 µM (active).

In the case of `O=C(CCC(=O)N1CCc2ccccc2C1)N1CCN(S(=O)(=O)c2ccccc2)CC1`, the IC50 [7] is reported as 22.2 µM (active), the IC50 [8] is reported as 50 µM (active) and the IC50 [9] is reported as 12.9 µM (active).

With `CCn1c(SCC(=O)c2c[nH]c3ccccc23)nnc1-c1cccs1` the IC50 [10] was 60.5 µM (active), the IC50 [11] was 24.3 µM (active) and the IC50 [12] was > 100 µM (inactive).

`O=c1c2ccccc2sc2ccc(NCCCN3CCOCC3)cc12` was tested, and the EC50 [13] was 7.98 µM (active), the AC50 [6] was 31.2 µM (active) and the CC50 [14] was > 25 µM (active).

For `Cc1ccc(N2C(=O)/C(=C\NN3CCCCC3c3cccnc3)C(=O)NC2=S)cc1` (stereo not drawn), the IC50 [10] was 71.3 µM (active), the IC50 [11] was 31.7 µM (active) and the IC50 [12] was > 100 µM (inactive).
